Experimental data as given in ChEMBL document CHEMBL4043261, “Cytotoxic properties of the alkaloid rutaecarpine and its oligocyclic derivatives and chemical modifications to enhance water-solubility” (Bioorg Med Chem Lett, 2017).
Converted amounts (≈) assume the structure as drawn.

What was measured:
[1] = Solubility of the compound in minimal essential medium at 1 to 2 mg after 24 hrs in absence of 10% FCS by HPLC-UV based shake-flask method; assay type: physicochemical; conditions: BLD = below limit of detection
HeLa = experiment: Cytotoxicity against human HeLa cells by MTT assay; assay type: functional, cell-based
[2] = Solubility of the compound in minimal essential medium at 1 to 2 mg after 24 hrs in presence of 10% FCS by HPLC-UV based shake-flask method; assay type: physicochemical; conditions: BLD = below limit of detection
[3] = Aqueous solubility of the compound in phosphate buffered saline at pH 7.4 after 24 hrs by HPLC-UV based shake-flask method; assay type: physicochemical
[4] = Dissociation constant, pka of the compound by potentiometric titration method; assay type: physicochemical
[5] = Intrinsic solubility of the compound at pH 2 by turbidimetric titration method; assay type: physicochemical; conditions: buffer, read-out: Intrinsic_solubility
[6] = Aqueous solubility of the compound in phosphate buffered saline at pH 6.8 after 24 hrs by HPLC-UV based shake-flask method; assay type: physicochemical
[7] = Solubility of the compound in water; assay type: physicochemical; conditions: buffer
[8] = Aqueous solubility of the compound in deionized water after 24 hrs by HPLC-UV based shake-flask method; assay type: physicochemical; conditions: buffer
[9] = phosphate buffered saline, pH 7.4
[10] = phosphate buffered saline, pH 6.8

SMILES | solubility [1] | EC50 (HeLa) | solubility [2] | other results
COc1cc2nc3n(c(=O)c2cc1OC)CCc1c-3[nH]c2ccccc12 | Bld | 60.8 µM | Bld | –
Cl.O=c1c2cc(O)ccc2nc2n1CCc1c-2n(CCCN2CCCCC2)c2ccccc12 | – | 15.4 µM | – | solubility thermodynamic at 24 h [3, 9]: 441 µM; pKa [4]: 8.8; solubility [5]: 15.5 µM; solubility thermodynamic at 24 h [6, 10]: 1710 µM
CCN(CC)CCCn1c2c(c3ccccc31)CCn1c-2nc2ccc(O)cc2c1=O.Cl | – | 9.8 µM | – | solubility thermodynamic at 24 h [3, 9]: 1900 µM; pKa [4]: 8.94; solubility [5]: 53.2 µM; solubility thermodynamic at 24 h [6, 10]: 7400 µM
O=c1c2cc(O)ccc2nc2n1CCc1ccccc1-2 | – | 53.9 µM | – | –
O=c1c2cc(Cl)ccc2nc2n1CCc1ccccc1-2 | Bld | 20.6 µM | Bld | –
O=c1c2sc3ccccc3c2nc2n1CCc1c-2[nH]c2ccccc12 | Bld | 8.4 µM | Bld | –
O=c1c2sc3ncccc3c2nc2n1CCc1c-2[nH]c2ccccc12 | – | 22.1 µM | – | –
CCN(CC)CCCOc1ccc2nc3n(c(=O)c2c1)CCc1c-3[nH]c2ccccc12.Cl | – | 17.1 µM | – | solubility thermodynamic at 24 h [3, 9]: 45.8 µM; pKa [4]: 9.29; solubility [5]: 0.7 µM; solubility thermodynamic at 24 h [6, 10]: 180 µM
O=c1c2ccccc2nc2n1CCc1ccccc1-2 | – | 64.2 µM | – | –
O=c1c2cc(O)ccc2nc2n1CCc1c-2[nH]c2ccccc12 | – | 11.3 µM | – | –
Cl.O=c1c2cc(OCCCN3CCCCC3)ccc2nc2n1CCc1c-2[nH]c2ccccc12 | Bld | 16.3 µM | Bld | solubility thermodynamic at 24 h [3, 9]: 5.62 µM; pKa [4]: 9.36; solubility [5]: 0.21 µM; solubility thermodynamic at 24 h [6, 10]: 21.8 µM
O=c1c2cc(Cl)ccc2nc2n1CCc1c-2[nH]c2ccccc12 | – | 7.2 µM | – | –
C=C1C(=O)O[C@@H]2C[C@@H](C)[C@@H]3C=CC(=O)[C@@]3(C)[C@@H](O)[C@H]12 [HELENALIN] | – | 0.7 µM | – | –
O=c1c2ccccc2nc2n1CCc1c-2[nH]c2ccccc12 [RUTAECARPINE] | Bld | 26.1 µM | Bld | solubility thermodynamic at 24 h ([3]; buffer, pH 7.4, 24 h): 0.0271 µM (≈ 7.79 ng/mL); solubility [7]: 0.033 µM (≈ 9.48 ng/mL); solubility thermodynamic at 24 h ([6]; buffer, pH 6.8, 24 h): 0.0257 µM (≈ 7.38 ng/mL); solubility [8]: 0.0328 µM (≈ 9.42 ng/mL)
